Experimental data reported in PubChem BioAssay AID504935 (The Scripps Research Institute Molecular Screening Center, 2011).

Tests used:
U87 cell line = assay: U87 glioblastoma viability loss – cell-based, luminescence, U87 vII, cytotoxicity control for Wee1 degradation inhibitor project, dose response (AID 504935); conditions: U87 cells cytotoxicity
U87 vII cell line = assay: as above; conditions: U87 cells cytotoxicity

O=[N+]([O-])c1cccc2[nH]c(CNc3nc(N4CCOCC4)nc4c3ncn4-c3ccsc3)nc12
IC50 (U87 cell line): 95.1 nM
IC50 (U87 vII cell line): 23.4 nM
